Laboratory results as given in US20190075791A1, “ANTIMICROBIAL SURFACE COATING MATERIAL” (YEDITEPE UNIVERSITESI, priority 2015, published 2019).

Legend:
Assay in all cases: Modified disk diffusion method (chemicals)
Format in all cases: cell-based
Aspergillus spp. = details: disc diffusion on Potato Dextrose Agar, 72 hours at 25±1 °C, PC = nystatin 30 μg/disc
Experimental: (§1) Modified disk diffusion method: Standard NCCLS disc diffusion method was used upon being modified in order to determine the antimicrobial activity of CG, T and ZP on each microorganism that is being tested. The 100 μl solution including 10^8 cfu/ml bacteria, 10^6 cfu/ml yeast and 10^4 spor/ml fungi was prepared with fresh cultures and inoculated with spreading method on Nutrient Agar (NA), Sabouraud Dextrose Agar (SDA) and Potato Dextrose Agar (PDA), respectively. 20 μl of sterile water was dropped on the empty discs, and was immersed into powder triclosan. 20 μl of chlorhexidine gluconate and zinc pyrithione were drawn and impregnated to the empty discs and placed on the inoculated petri dishes. Empty discs with 20 μl drop of sterile water were used as negative control. Ofloxacin (10 μg/disc) and nystatin (30 μg/disc) were used as positive control for bacteria and fungi, respectively. The petri dishes, which were inoculated and on which modified disc diffusion method was applied, were incubated for 24 hours for bacteria and 48 hours for yeasts at 36±1 ° C., and for 72 hours for fungi at 25±1 ° C. […] All tests were repeated at least twice.

Botrytis cinerea = details: disc diffusion on Potato Dextrose Agar, 72 hours at 25±1 °C, PC = nystatin 30 μg/disc
Experimental: as §1

Candida albicans = details: disc diffusion on Sabouraud Dextrose Agar, 48 hours at 36±1 °C, PC = nystatin 30 μg/disc
Experimental: as §1

Candida glabrata = details: disc diffusion on Sabouraud Dextrose Agar, 48 hours at 36±1 °C, PC = nystatin 30 μg/disc
Experimental: as §1

Escherichia coli = details: disc diffusion on Nutrient Agar, 24 hours at 36±1 °C, PC = ofloxacin 10 μg/disc
Experimental: as §1

Fusarium oxysporum = details: disc diffusion on Potato Dextrose Agar, 72 hours at 25±1 °C, PC = nystatin 30 μg/disc
Experimental: as §1

[1] = tested on: Methicillin-resistant Staphylococcus aureus (MRSA); details: disc diffusion on Nutrient Agar, 24 hours at 36±1 °C, PC = ofloxacin 10 μg/disc
Experimental: as §1

Penicillium spp. = details: disc diffusion on Potato Dextrose Agar, 72 hours at 25±1 °C, PC = nystatin 30 μg/disc
Experimental: as §1

Pseudomonas aeruginosa = details: disc diffusion on Nutrient Agar, 24 hours at 36±1 °C, PC = ofloxacin 10 μg/disc
Experimental: as §1

Staphylococcus aureus = details: disc diffusion on Nutrient Agar, 24 hours at 36±1 °C, PC = ofloxacin 10 μg/disc
Experimental: as §1

[2] = tested on: Vancomycin-resistant Enterococcus (VRE); details: disc diffusion on Nutrient Agar, 24 hours at 36±1 °C, PC = ofloxacin 10 μg/disc
Experimental: as §1

Row | Compound | Antimicrobial activity (inhibition zone) (Aspergillus spp.) | Antimicrobial activity (inhibition zone) (Botrytis cinerea) | Antimicrobial activity (inhibition zone) (Candida albicans) | Antimicrobial activity (inhibition zone) (Candida glabrata) | Antimicrobial activity (inhibition zone) (Escherichia coli) | Antimicrobial activity (inhibition zone) (Fusarium oxysporum) | Antimicrobial activity (inhibition zone) [1] | Antimicrobial activity (inhibition zone) (Penicillium spp.) | Antimicrobial activity (inhibition zone) (Pseudomonas aeruginosa) | Antimicrobial activity (inhibition zone) (Staphylococcus aureus) | Antimicrobial activity (inhibition zone) [2]
1 | N=C(NCCCCCCNC(=N)NC(=N)Nc1ccc(Cl)cc1)NC(=N)Nc1ccc(Cl)cc1.O=C(O)[C@H](O)[C@@H](O)[C@H](O)[C@H](O)CO.O=C(O)[C@H](O)[C@@H](O)[C@H](O)[C@H](O)CO [CG, Chlorhexidine gluconate] | + | + | + | + | + | + | + | + | + | + | +
2 | Zinc Pyrithione [ZP] | + | + | + | + | + | + | + | + | + | + | +
3 | Oc1cc(Cl)ccc1Oc1ccc(Cl)cc1Cl [T, Triclosan] | − | − | − | − | + | − | + | − | + | + | +
